Structures can show the parent of a compound that is named as a salt.

In experiment [1] the target is RAF kinases (Homo sapiens, UniProt P15056, V600E). In words: biochemical.
Experiment [2] concerns the target RAF kinases (Homo sapiens, UniProt P04049). In words: biochemical.
For experiment [3], the system named is MEK1 phosphorylation in the A375 human melanoma cell line. The experiment is described as follows: cells. As to conditions: A-375, read-out: pMEK IC50.
A further experiment has as its system A375 cells. The experiment is described as follows: cells. As to conditions: Homo sapiens, A-375, read-out: A375 Viability EC50.
Experiment [4] concerns the target RAF kinases (Homo sapiens, UniProt P15056). The experiment is described as follows: biochemical.

Sequence of RAF kinases (Homo sapiens, UniProt P15056, V600E) (P15056 whole entry V600E): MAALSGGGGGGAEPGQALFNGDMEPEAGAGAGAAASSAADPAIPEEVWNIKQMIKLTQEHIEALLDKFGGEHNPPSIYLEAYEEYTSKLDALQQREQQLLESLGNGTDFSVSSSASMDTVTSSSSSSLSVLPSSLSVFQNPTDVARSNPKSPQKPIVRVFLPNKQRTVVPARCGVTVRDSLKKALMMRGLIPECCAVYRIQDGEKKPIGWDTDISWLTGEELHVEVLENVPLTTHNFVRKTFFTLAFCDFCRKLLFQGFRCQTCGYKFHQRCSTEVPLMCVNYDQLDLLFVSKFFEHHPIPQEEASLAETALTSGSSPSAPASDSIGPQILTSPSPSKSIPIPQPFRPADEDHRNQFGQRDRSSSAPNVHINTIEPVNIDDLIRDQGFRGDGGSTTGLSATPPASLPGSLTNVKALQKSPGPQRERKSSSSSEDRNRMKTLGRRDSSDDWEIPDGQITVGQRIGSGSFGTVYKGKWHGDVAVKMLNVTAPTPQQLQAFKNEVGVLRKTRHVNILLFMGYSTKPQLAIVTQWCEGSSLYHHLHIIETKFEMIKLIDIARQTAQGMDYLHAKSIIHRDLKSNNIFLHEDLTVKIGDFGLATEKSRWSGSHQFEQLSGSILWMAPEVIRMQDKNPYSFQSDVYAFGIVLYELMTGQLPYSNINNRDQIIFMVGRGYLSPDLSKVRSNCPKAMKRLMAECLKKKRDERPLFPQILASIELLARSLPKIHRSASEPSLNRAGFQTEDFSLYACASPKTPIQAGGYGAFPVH
Sequence of RAF kinases (Homo sapiens, UniProt P04049) (P04049 whole entry): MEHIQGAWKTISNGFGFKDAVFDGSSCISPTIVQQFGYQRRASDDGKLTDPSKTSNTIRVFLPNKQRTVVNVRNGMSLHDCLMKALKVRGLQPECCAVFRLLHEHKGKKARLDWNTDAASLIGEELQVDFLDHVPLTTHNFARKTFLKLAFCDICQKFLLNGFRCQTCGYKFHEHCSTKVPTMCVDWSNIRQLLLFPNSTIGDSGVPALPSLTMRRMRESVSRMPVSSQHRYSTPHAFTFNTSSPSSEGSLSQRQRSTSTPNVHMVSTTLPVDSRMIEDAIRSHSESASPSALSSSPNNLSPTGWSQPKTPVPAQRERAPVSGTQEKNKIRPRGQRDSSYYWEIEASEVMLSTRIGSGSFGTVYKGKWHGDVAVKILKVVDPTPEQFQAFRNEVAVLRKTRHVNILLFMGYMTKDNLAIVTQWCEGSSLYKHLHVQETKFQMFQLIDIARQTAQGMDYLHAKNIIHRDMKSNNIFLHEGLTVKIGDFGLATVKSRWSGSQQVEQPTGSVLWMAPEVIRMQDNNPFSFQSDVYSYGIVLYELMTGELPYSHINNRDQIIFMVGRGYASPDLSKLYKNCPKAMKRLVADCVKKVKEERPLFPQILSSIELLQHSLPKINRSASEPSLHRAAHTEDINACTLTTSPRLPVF
Sequence of RAF kinases (Homo sapiens, UniProt P15056) (P15056 whole entry): as the sequence (P15056 whole entry V600E) above, with E600V counted along it

Take `COCCOc1cc(NC(=O)Nc2cccc(Oc3ncnc4cc(OC)c(OC)cc34)c2)cc(C(F)(F)F)c1` [Ex 129, 1-(3-(6,7-dimethoxyquinazolin-4-yloxy)phenyl)-3-(3-(2-methoxyethoxy)-5-(trifluoromethyl)phenyl)urea]: the Kd at RAF kinases [1] and at RAF kinases [2] was 250 to 500 nM in each case. Moreover, the half-inhibitory concentration (IC50) in experiment [3] is greater than 1000 nM. In addition, in the experiment on A375 cells, the EC50 was greater than 1000 nM.

For the molecule `COc1cc2c(Sc3cccc(NC(=O)Nc4cc(C(C)(C)C)on4)c3)ncnc2cc1OCCN1CCC(CO)CC1` [Ex 86, 1-(5-tert-butylisoxazol-3-yl)-3-(3-(7-(2-(4-(hydroxymethyl)piperidin-1-yl)ethoxy)-6-methoxyquinazolin-4-ylthio)phenyl)urea], the Kd at RAF kinases [1] fell in the range of 250 to 500 nM; at RAF kinases [2], 500 to 1000 nM. Further, in experiment [3], the 50% inhibitory concentration (IC50) was less than 250 nM. In addition, the EC50 in the experiment with A375 cells was greater than 1000 nM.

With `CC(C)(C)c1cc(NC(=O)Nc2cccc(Sc3ncnc4cc5c(cc34)OCCO5)c2)no1` [Ex 54, 1-(5-tert-butylisoxazol-3-yl)-3-[3-(7,8-dihydro-[1,4]dioxino[2,3-g]quinazolin-4-ylthio)phenyl]urea hydrochloride], the Kd at RAF kinases [1] was in the range of 500 to 1000 nM. The IC50 in experiment [3] lay within 500 to 1000 nM. Besides, in the experiment with A375 cells, the EC50 is greater than 1000 nM.

With `COc1cc2ncnc(Sc3cccc(NC(=O)Nc4cc(C5(C(F)(F)F)CCC5)no4)c3)c2cc1OC` [Ex 156, 1-(3-(6,7-dimethoxyquinazolin-4-ylthio)phenyl)-3-(3-(1-(trifluoromethyl)cyclobutyl)isoxazol-5-yl)urea], the Kd on RAF kinases [1] was 500 to 1000 nM. Moreover, in experiment [3], the IC50 was in the range of 500 to 1000 nM. Moreover, the concentration for a half-maximal effect (EC50) with A375 cells was greater than 1000 nM.

In turn, `COc1cc2ncnc(Sc3cccc(NC(=O)Nc4ccc(C(F)(F)F)c(OC)c4)c3)c2cc1OC` [Ex 190, 1-(3-(6,7-dimethoxyquinazolin-4-ylthio)phenyl)-3-(3-methoxy-4-(trifluoromethyl)phenyl)urea] returned a Kd at RAF kinases [1] of 500 to 1000 nM. Further, the IC50 in experiment [3] is greater than 1000 nM. Moreover, in the experiment on A375 cells, the EC50 is greater than 1000 nM.

As to `COc1cc2ncnc(Oc3cc(NC(=O)Nc4cc(C(C)(C)C)on4)ccc3Cl)c2cc1OC` [Ex 10, 1-(5-tert-butylisoxazol-3-yl)-3-(4-chloro-3-(6,7-dimethoxyquinazolin-4-yloxy)phenyl)urea], the Kd at RAF kinases [1] lay within 500 to 1000 nM. Moreover, the concentration for half-maximal inhibition (IC50) in experiment [3] is greater than 1000 nM. For the same molecule, the EC50 in the experiment on A375 cells is greater than 1000 nM.

As to `COCCOc1cc(NC(=O)Nc2cccc(Sc3ncnc4cc(OC)c(OC)cc34)c2)cc(C(F)(F)F)c1` [Ex 200, 1-(3-(6,7-dimethoxyquinazolin-4-ylthio)phenyl)-3-(3-(2-methoxyethoxy)-5-(trifluoromethyl)phenyl)urea], the Kd on RAF kinases [1] and at RAF kinases [4] was 500 to 1000 nM in each case. Moreover, the IC50 in experiment [3] is greater than 1000 nM. The EC50 in the experiment with A375 cells is greater than 1000 nM.

On to `CC(C)(C)c1cc(NC(=O)Nc2cccc(Sc3ncnc4cc(F)c(F)cc34)c2)no1` [Ex 47, 1-(5-tert-butylisoxazol-3-yl)-3-(3-(6,7-difluoroquinazolin-4-ylthio)phenyl)urea], for which the Kd at RAF kinases [1] fell in the range of 500 to 1000 nM. For the same molecule, the IC50 in experiment [3] was greater than 1000 nM. Further, the EC50 in the experiment on A375 cells was greater than 1000 nM.

In the case of `COc1cc2ncnc(Oc3cccc(NC(=O)Nc4cc(-c5ccccc5)on4)c3)c2cc1OC` [Ex 113, 1-(3-(6,7-dimethoxyquinazolin-4-yloxy)phenyl)-3-(5-phenylisoxazol-3-yl)urea], the Kd on RAF kinases [1] lay within 250 to 500 nM; at RAF kinases [4] it was 500 to 1000 nM. For the same molecule, the IC50 in experiment [3] fell in the range of 500 to 1000 nM. In the experiment with A375 cells, the EC50 is greater than 1000 nM.

`COc1ccc2c(Sc3cccc(NC(=O)Nc4cc(C(C)(C)C)on4)c3)ncnc2c1` [Ex 48, 1-(5-tert-butylisoxazol-3-yl)-3-(3-(7-methoxyquinazolin-4-ylthio)phenyl)urea] registered a Kd at RAF kinases [1] of 250 to 500 nM. Besides, the half-maximal inhibitory concentration (IC50) in experiment [3] lay within 500 to 1000 nM. Besides, the EC50 with A375 cells is greater than 1000 nM.

Regarding `COc1cc2c(Oc3cccc(NC(=O)Nc4cc(C(C)(C)C)on4)c3)ncnc2cc1O[C@H]1CCN(CC(F)F)C1` [Ex 103, (S)-1-(5-tert-butylisoxazol-3-yl)-3-(3-{7-[1-(2,2-difluoroethyl)pyrrolidin-3-yloxy]-6-methoxyquinazolin-4-yloxy}phenyl)urea], the Kd at RAF kinases [1] is 250 to 500 nM. Besides, in experiment [3], the IC50 was 500 to 1000 nM. For the same molecule, the EC50 with A375 cells is greater than 1000 nM.

In turn, `CCOc1cc2ncnc(Oc3cccc(NC(=O)Nc4cc(C(C)(C)C)on4)c3)c2cc1OCC` [Ex 13, 1-(5-tert-butylisoxazol-3-yl)-3-[3-(6,7-diethoxyquinazolin-4-yloxy)phenyl]urea hydrochloride] returned a Kd on RAF kinases [1] of 250 to 500 nM. Also, the IC50 in experiment [3] lay within 250 to 500 nM. In the experiment with A375 cells, the 50% effective concentration (EC50) lay within 500 to 1000 nM.

At RAF kinases [1], `COc1cc2ncnc(Oc3cccc(NC(=O)Nc4cc(C(F)(F)F)nn4-c4ccccc4)c3)c2cc1OC` [Ex 161, 1-[3-(6,7-dimethoxyquinazolin-4-yloxy)phenyl]-3-[1-phenyl-3-(trifluoromethyl)-1H-pyrazol-5-yl]urea] came in with a Kd of 500 to 1000 nM. Moreover, in experiment [3], the IC50 is less than 250 nM. For the same molecule, the EC50 in the experiment with A375 cells lay within 250 to 500 nM.

For `COc1cc2ncnc(Oc3cccc(NC(=O)Nc4cc(C(F)(F)F)nn4-c4ccc(F)cc4)c3)c2cc1OC` [Ex 171, 1-[3-(6,7-dimethoxyquinazolin-4-yloxy)phenyl]-3-[1-(4-fluorophenyl)-3-(trifluoromethyl)-1H-pyrazol-5-yl]urea], the Kd at RAF kinases [1] was in the range of 500 to 1000 nM. Moreover, the IC50 in experiment [3] was 250 to 500 nM. In the experiment on A375 cells, the EC50 fell in the range of 250 to 500 nM.

For `COCC(C)(C)c1cc(NC(=O)Nc2cccc(Oc3ncnc4cc(OC)c(OC)cc34)c2)no1` [Ex 130, 1-(3-(6,7-dimethoxyquinazolin-4-yloxy)phenyl)-3-(5-(1-methoxy-2-methylpropan-2-yl)isoxazol-3-yl)urea], at RAF kinases [1], the dissociation constant Kd is 250 to 500 nM. Moreover, the IC50 in experiment [3] is 250 to 500 nM. In the experiment on A375 cells, the concentration for a half-maximal effect (EC50) is greater than 1000 nM.

As to `CCOC(C)(C)c1cc(NC(=O)Nc2cccc(Sc3ncnc4cc(OCCOC)c(OC)cc34)c2)n(-c2ccccc2)n1` [Ex 241, 1-[3-(2-ethoxypropan-2-yl)-1-phenyl-1H-pyrazol-5-yl]-3-{3-[6-methoxy-7-(2-methoxyethoxy)quinazolin-4-ylthio]phenyl}urea], at RAF kinases [1], the dissociation constant (Kd) is 250 to 500 nM. Also, the IC50 in experiment [3] fell in the range of 500 to 1000 nM. The EC50 in the experiment on A375 cells was greater than 1000 nM.

At RAF kinases [1], `COCCOc1cc2ncnc(Oc3cccc(NC(=O)Nc4cc(C(=O)N5CCOCC5)cc(C(F)(F)F)c4)c3)c2cc1OC` [Ex 205, 1-(3-(6-methoxy-7-(2-methoxyethoxy)quinazolin-4-yloxy)phenyl)-3-(3-(morpholine-4-carbonyl)-5-(trifluoromethyl)phenyl)urea] came in with an equilibrium dissociation constant (Kd) of 250 to 500 nM. Besides, the IC50 in experiment [3] is greater than 1000 nM. For the same molecule, the EC50 in the experiment on A375 cells was greater than 1000 nM.

`COc1cc2ncnc(Oc3cccc(NC(=O)Nc4cc(C(=O)N5CCOCC5)cc(C(F)(F)F)c4)c3)c2cc1OC` [Ex 149, 1-(3-(6,7-dimethoxyquinazolin-4-yloxy)phenyl)-3-(3-(morpholine-4-carbonyl)-5-(trifluoromethyl)phenyl)urea] displayed a Kd at RAF kinases [1] of 500 to 1000 nM. Besides, the 50% inhibitory concentration (IC50) in experiment [3] was greater than 1000 nM. The EC50 with A375 cells is greater than 1000 nM.

`COc1cc2ncnc(Oc3cccc(NC(=O)Nc4cc(C5(C(F)(F)F)CCC5)no4)c3)c2cc1OC` [Ex 155, 1-(3-(6,7-dimethoxyquinazolin-4-yloxy)phenyl)-3-(3-(1-(trifluoromethyl)cyclobutyl)isoxazol-5-yl)urea]: on RAF kinases [1], the Kd fell in the range of 250 to 500 nM. In addition, the half-inhibitory concentration (IC50) in experiment [3] lay in the range of 250 to 500 nM. Also, in the experiment with A375 cells, the EC50 is greater than 1000 nM.

The record behind these values is patent publication US8618289B2 (Ambit Biosciences Corporation, priority 2008, dated 2013).
